According to patent US11020372B2, “Dietary and natural product management of negative side effects of cancer treatment” (UNIVERSITY OF FLORIDA RESEARCH FOUNDATION, INC., priority 2015, dated 2021):
Blank lines part the entries; values can stand above or below the molecule they belong to.

How the values were obtained:
[1] = system: Animals; assay: Chemotherapy-induced leukopenia (CBC: white blood cells, neutrophils); format: in vivo; conditions: 20 mg/kg TMZ, 100 mg/kg 5-FU; two weeks
Method: Animals were treated with different chemotherapy agents inducing leukopenia (20 mg/kg TMZ, 100 mg/kg 5-FU). […] Blood samples were processed for CBC.

[2] = system: neural stem cells; assay: BrdU immunoreactivity of neural stem cells in sub-ventricular area and hippocampus; format: in vivo, Mice
Method: A] Periventricular cells from the brains of animals treated with the indicated treatments were isolated and cultured in the neurosphere assay at clonal density to quantify clonogenic frequency. […] B-C] […] D-E] NSC activity was also measured in the hippocampus, region of the brain involved in cognition.
A cohort of animals received three injections of BrdU [50 mg/kg] over a 72-hour time period before to be euthanized. Brains were removed, fixed, sectioned and BrdU antibodies used to identify cells that were in S-phase during the 72 hour injection period.

[3] = system: neural stem cells; assay: Neurosphere assay of periventricular cells from treated animals; format: in vivo, Mice; conditions: TMZ [20 mg/kg] or 5-FU [100 mg/kg] for two weeks
Method: A] Periventricular cells from the brains of animals treated with the indicated treatments were isolated and cultured in the neurosphere assay at clonal density to quantify clonogenic frequency. […] Chemotherapies induced a decline of neural stem cell activity seen by decreased neurosphere formation, which can be improved when combined with our treatment, **, ***, p<0.01, p<0.001, one-way ANOVA. B-C] […] D-E] NSC activity was also measured in the hippocampus, region of the brain involved in cognition.
Mice were fed with control diet or MCT/LC/Curcumin/EGCG/SFN diet. Each dietary group was treated with TMZ [20 mg/kg] or 5-FU [100 mg/kg] for two weeks, after which point brains were harvested and the cells from the periventricular region were cultured at clonal density in the neurosphere assay during one passage (7-14 days) to quantify the sphere forming frequency indicating neural stem cells occurrence in the brains of animals treated with the different treatments.

[4] = system: Animals; assay: Chemotherapy-induced anemia (CBC: red blood cells, hematocrit, hemoglobin); conditions: for anemia: level of red blood cell count, hemoglobin and hematocrit, chemotherapy agent alone: 20 mg/kg TMZ, 100 mg/kg 5-FU, 40 mg/kg oxaliplatin, two to four weeks; for hemoglobin level, chemotherapeutic agent alone: 100 mg/kg 5-FU or 40 mg/kg oxaliplatin
Method: Animals were treated with three different chemotherapy agents inducing anemia (20 mg/kg TMZ, 100 mg/kg 5-FU, 40 mg/kg oxaliplatin). After two to four weeks of treatments blood was collected via retro-orbital puncture from the different experimental groups. Blood samples were processed for CBC.

[5] = system: Mice; assay: Paclitaxel-induced nephrotoxicity and hepatotoxicity (kidney and liver mass); format: in vivo; conditions: Paclitaxel [5 mg/kg], 3-4 weeks of treatment
Method: Targeted toxicity of the chemotherapeutic agent Paclitaxel was assessed after 3-4 weeks of treatment via measuring the mass of the kidneys.
Toxicity was assessed after 3-4 weeks of treatment via comparing the mass of the liver.
After four weeks of treatments, the organs were harvested and their mass determined.

[6] = system: patients with type 2 diabetes; conditions: provided by oral intake of 68 grams of broccoli sprouts; cited from earlier work
[7] = in vivo; cited from earlier work
[8] = system: neonatal rat; conditions: cited from earlier work
[9] = system: rats, guinea pigs and monkeys; conditions: cited from earlier work
[10] = system: healthy subjects; conditions: 5000 to 12,000 mg/day; cited from earlier work
[11] = system: Mice; assay: Von Frey test of mechanosensitivity (chemotherapy-induced peripheral neuropathy); conditions: Von Frey filament 4 g; cumulative 25 mg/kg Paclitaxel, 40 mg/kg Oxaliplatin
Method: Mechanosensitivity was compared between the different experimental groups. Von Frey test filament (4 g) was pressed to the plantar surface of the hindpaw until the filament just bent.
Animals were also tested for neuropathic pain using the Von Frey Test where the sensitivity of the animals to mechanical stimulus is measured. Similar to the cold allodynia assay, the animals were tested after cumulative doses of 25 mg/kg paclitaxel and 40 mg/kg oxaliplatin. Von Frey test filament (4 g) was pressed to the plantar surface of the hindpaw until the filament just bent. The percent positive response (i.e. paw withdrawal) was recorded.

[12] = system: rodents; conditions: oral doses as high as 500 mg/kg in rodents; cited from earlier work
[13] = system: dogs; conditions: 500 mg/kg/day, divided dosage, pre-fed dogs, 13 weeks; cited from earlier work
[14] = neonatal rat hypoxic-ischemic injury

Molecule: O=c1[nH]cc(F)c(=O)[nH]1 [5-FU, Fluorouracil]
leukopenia: level of white blood cell and neutrophil count, chemotherapy agent alone [1]: induced leukopenia
NSC activity (BrdU immunoreactivity) in the sub-ventricular area (SVZ), single treatment versus control ([2]; diet alone or 5-FU alone): reduced level of BrdU+ve cells
number of BrdU-immunoreactive proliferating neural stem cells relative to controls ([2]; subventricular area and hippocampus, three BrdU injections [50 mg/kg] over 72 hours): less number of proliferating neural stem cells
sphere forming cells, chemotherapy agent alone [3]: decreased number of sphere forming cells
anemia: level of red blood cell count, hemoglobin and hematocrit, chemotherapy agent alone [4]: induced anemia
hemoglobin level, chemotherapeutic agent alone [4]: significantly diminished

Molecule: CC(=O)O[C@H]1C(=O)[C@@]2(C)[C@H]([C@H](OC(=O)c3ccccc3)[C@]3(O)C[C@H](OC(=O)[C@H](O)[C@@H](NC(=O)c4ccccc4)c4ccccc4)C(C)=C1C3(C)C)[C@]1(OC(C)=O)CO[C@@H]1C[C@@H]2O [Paclitaxel]
mass of the kidneys, drug alone [5]: significant diminution of the kidney weight
mass of the liver, drug alone [5]: significant liver enlargement

Molecule: C[S+]([O-])CCCCN=C=S (centres unmarked) [SFN, sulforaphane]
safe non-toxic dose [6]: 100 mg
elimination [7]: long terminal elimination phase
time to peak plasma levels [7]: ≤ 2 h
infarct ratio ([8]; 24 hours after hypoxic ischemia): reduced infarct ratio
expression of the Nrf2 antioxidative transcription factor in the brain [8, 14]: increased the expression of the Nrf2
number of apoptotic cells [8, 14]: significantly decreased the number of apoptotic cells

leukopenia: level of white blood cell and neutrophil count, chemotherapy agent alone [1]: induced leukopenia
sphere forming cells, chemotherapy agent alone [3]: decreased number of sphere forming cells
Molecule: Cn1nnc2c(C(N)=O)ncn2c1=O [TMZ, Temozolomide]

Molecule: COc1cc(/C=C/C(=O)CC(=O)/C=C/c2ccc(O)c(OC)c2)ccc1O [curcumin, Curcumin]
toxicity at high doses in preclinical models [9]: safe
adverse side effects in dose escalation [10]: no significant adverse side effects

Molecule: O=C1[O][Pt]2([NH][C@@H]3CCCC[C@H]3[NH]2)[O]C1=O [oxaliplatin, Oxaliplatin]
mechanosensitivity (percent positive response, paw withdrawal), chemotherapy alone, FIG. 12 [11]: increased
anemia: level of red blood cell count, hemoglobin and hematocrit, chemotherapy agent alone [4]: induced anemia
hemoglobin level, chemotherapeutic agent alone [4]: significantly diminished

Molecule: Epigallocatechin-3-gallate [EGCG]
genotoxic or short term toxicity [12]: no genotoxic or short term toxicity
adverse events or toxicity [13]: no adverse events or toxicity
